Assay results taken from patent US12156889B2, “Methods of administering mesenchymal stem cells activated by cytokines for enhancing immunosuppression” (Rutgers, The State University of New Jersey, priority 2012, dated 2024).

Assays:
splenocytes = test: Anti-CD3-activated splenocyte proliferation in co-culture with MSCs; type: cell-based, mouse
Method: FIGS. 9A, 9B, 9C, 9D, 9E, 9F and 9G. […] Cloned MSCs were first treated with the indicated combinations of recombinant cytokines IFNγ, TNFα, IL-17A (2 ng/ml each) for 12 hr, then cocultured with CD4^+ T cell blasts at a 1:20 ratio (MSC:T cells), and proliferation was assessed by 3H-thymidine incorporation after an additional 12 hr. (FIG. 9B). The mRNA expression of IL-17 receptor family members in MSCs or Raw 264.7 (Macrophages) were examined by RT-PCR. NC: No RT. (FIG. 9C). Surface expression of IL-17RA was detected by immunofluoresence or flow cytometry in cloned MSCs. (FIGS. 9D and 9E). MSCs were first treated with IFNγ and TNFα with or without IL-17A (10 ng/ml), IFNγ and TNFα were supplemented at different cytokine concentrations, for 12 hr, and then cocultured with CD4^+ T cell blasts (FIG. 9D) or T cell hybridoma A1.1 cells (FIG. 9E) at a ratio of 1:20 for 12 hr. T cell proliferation was measured by 3H-Tdr incorporation. (FIG. 9F). MSCs were first treated with IFNγ and TNFα (2 ng/ml) with graded concentrations of IL-17A, for 12 hr, and then cocultured with T cell hybridoma A1.1 cells at a ratio of 1:10 for 12 hr. T cell proliferation was measured by 3H-thymidine incorporation. (FIG. 9G). MSCs were cocultured with fresh C57BL/6 splenocytes plus anti-CD3, anti-CD28, and antibodies against IL-17A, at a 1:20 or 1:40 ratio (MSCs:splenocytes), for 48 hr, and then cell proliferation was assessed by 3H-thymidine incorporation. Proliferation values represent means±SEM of three wells from a representative of three experiments.
To examine the possibility that cytokines induce the immunosuppressive capacity of MSCs, these culture conditions were reproduced by combining MSCs and fresh splenocytes at graded ratios in the presence of anti-CD3. […] The immunosuppressive capacity of MSC clones generated from different mouse strains was also examined.
To identify the mechanism through which immunosuppression by cytokine-exposed MSCs is effected, the response of anti-CD3-activated splenocytes co-cultured with MSCs (1:20, MSC:splenocytes) in a […] system was examined in various configurations.
Nitric oxide (NO) at high concentrations is known to inhibit T cell responses. It diffuses quickly from its source, but the concentration of the active form drops off within about 100 μm.
Proliferation assay—To assay T cell proliferation, 0.5 μCi of 3H-thymidine was added to each well of 96-well plates 6 hr before termination of the cultures by freezing. Plates were then thawed, cells were harvested, and incorporated 3H-Tdr was assessed with a Wallac Microbeta scintillation counter (Perkin-Elmer, Waltham, MA).

[1] = system: 355 B-cell lymphoma cell line; test: 355 B-cell lymphoma survival model; type: in vivo; details: 0.1 mg/mouse i.p. on day 0, 2, 4, 8, 12, 16, 20, 24, and 28
Method: FIG. 4. is a graph showing that lymphoma stromal cells (LSCs) promote lymphoma development in a NO-dependent manner. 355 B-cell lymphoma cell line (C3H-gld/gld background, 0.5×10^6 cells/mouse) was co-injected with gld/gld mice-derived lymphoma stromal cells (C3H background, P5, 0.25×10^6 cells/mouse) by tail-vein i.v. on day 0.1400 W (NOS inhibitor, 0.1 mg/mouse) was injected on day 0, 2, 4, 8, 12, 16, 20, 24, and 28 by i.p. Mice survival was recorded when mice were moribund.
To examine the effect of lymphoma stromal cells on tumor growth, 355 B-cell lymphoma cell line (C3H-gld/gld background, 0.5×10^6 cells/mouse) was co-injected with gld/gld mice-derived lymphoma stromal cells (C3H background, P5, 0.25×10^6 cells/mouse).

iNOS = iNOS protein and NO production in MSCs with type I IFN or FGF-2; type: cell-based, mouse; details: induced by IFN γ+TNF α or IFN γ+IL-β
Source text: FIGS. 17A, 17B, 17C and 17D. Type I interferons and FGF-2 down-regulate the immunosuppressive effect of MSCs through attenuation NO production. […] (FIG. 17C) FGF-2 (FGF B) inhibited the NO production which was induced by IFN γ+TNF α or IFN γ+IL-β in MSCs, reflected by nitrate content in the culture supernatants.

Molecule: CC(=N)NCc1cccc(CN)c1 [1400 W]
- splenocyte proliferation in MSC co-culture with iNOS inhibitor (splenocytes; MSCs + splenocytes + anti-CD3): same effect
- effect on stromal cell-enhanced mortality [1]: significantly reverted the effect

B1: FGF-2: fibroblast growth factor (protein, UniProt P15655 10-154, looked up)
Fibroblast growth factor 2: PALPEDGGAAFPPGHFKDPKRLYCKNGGFFLRIHPDGRVDGVREKSDPHVKLQLQAEERGVVSIKGVCANRYLAMKEDGRLLASKCVTEECFFFERLESNNYNTYRSRKYSSWYVALKRTGQYKLGSKTGPGQKAILFLPMSAKS
- MSC-mediated immunosuppression in MSC+splenocyte+anti-CD3 system (splenocytes): significantly reduced
- NO production in MSCs (nitrate content in culture supernatants) (iNOS): inhibited
